In brackets after ≈: the same amount, converted by molar mass.
Experiments:
[1] = tested on: Escherichia coli (E. coli) BAS849; assay: Antibacterial activity, microbroth dilution MIC (Table 1); assay type: cell-based; settings: microbroth dilution, super sensitive Gram-negative E. coli BAS849, read-out: MIC, BAS849
In short: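 Values are MICs (μg/mL): the smallest drug amount at which macroscopically visible bacterial growth is absent under assay conditions, from a microdilution method in broth.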

[2] = tested on: Staphylococcus aureus (S. aureus) 29213; assay: as above; assay type: cell-based; settings: microbroth dilution, Gram-positive S. aureus 29213, read-out: MIC, 29213
In short: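 Broth microdilution; endpoint = no macroscopic growth; value = lowest inhibiting concn, μg/mL.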

E. coli 25922 = assay: as above; assay type: cell-based, Escherichia coli; settings: Escherichia coli; microbroth dilution; control Gram-negative E. coli 25922 strain; read-out: MIC, 25922
In short: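 In a microbroth dilution test, the minimum inhibitory concentration was defined as the lowest compound level preventing growth seen by eye, and was given in μg/mL.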

E. coli LZ3111 = assay: Antibacterial activity, MIC, quinolone resistant strain (Table 2); assay type: cell-based; settings: Escherichia coli, LZ3111, read-out: MIC LZ3111
In short: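 Growth inhibition assessed by serial drug dilution in broth; endpoint was absence of macroscopically visible growth, reported as MIC, μg/mL.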

E. coli ELZ4000 = assay: Antibacterial activity, MIC, multi-drug resistant clinical isolate (Table 3); assay type: cell-based; settings: Escherichia coli, ELZ4000, read-out: MIC ELZ4000
In short: (§1)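 Values derive from a microbroth dilution method, taking as MIC (μg/mL) the lowest tested concentration without macroscopically visible growth.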

E. coli ELZ4251 = assay: as above; assay type: cell-based; settings: Escherichia coli
In short: as §1

[3] = tested on: Acinetobacter baumannii (A. baumannii) BAA747; assay: Antibacterial activity, MIC (Table 4); assay type: cell-based; settings: A. baumannii BAA747, read-out: MIC, BAA747
In short: (§2)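 Compounds are serially diluted in microbroth, bacteria are grown under the test conditions, and growth is then inspected macroscopically. The lowest concentration without visible growth is reported as the MIC (μg/mL).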

[4] = tested on: Klebsiella pneumoniae (K. pneumoniae) 35657; assay: Antibacterial activity, MIC (Table 4); assay type: cell-based; settings: K. pneumoniae 35657, read-out: MIC, 35657
In short: as §2

A. baumannii MXX2240 = assay: Antibacterial activity, MIC, resistant strain (Table 4); assay type: cell-based; settings: Acinetobacter baumannii, MXX2240; resistant A. baumannii MMX2240, multi-drug resistant clinical isolate; read-out: MIC, MMX2240
In short: as §2

K. pneumoniae MXX1232 = assay: as above; assay type: cell-based; settings: Klebsiella pneumoniae, MXX1232; resistant K. pneumoniae MMX1232, multi-drug resistant clinical isolate; read-out: MIC, MMX1232
In short: as §2

[5] = tested on: Pseudomonas aeruginosa (P. aeruginosa) 27853; assay: Antibacterial activity, MIC (Table 5); assay type: cell-based; settings: P. aeruginosa 27853, read-out: MIC, 27853
In short: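 Using a microbroth dilution format, the minimum inhibitory concentration was recorded as the lowest tested concentration that stopped visible bacterial growth, expressed in μg/mL.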

[6] = tested on: Haemophilus influenzae (H. influenzae) 49247; assay: Antibacterial activity, MIC (Table 6); assay type: cell-based
In short: (§3)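 Values are minimum inhibitory concentrations in μg/mL, read as the lowest compound concentration at which no growth is visible to the eye. Testing used a microbroth dilution format.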

[7] = tested on: Moraxella catarrhalis (M. catarrhalis) 25238; assay: Antibacterial activity, MIC (Table 7); assay type: cell-based
In short: as §3

[8] = tested on: Neisseria meningitidis (N. meningitidis) 13090; assay: Antibacterial activity, MIC (Table 8); assay type: cell-based
In short: as §3

Row | Compound | MIC [1] [µg/mL] | MIC [2] [µg/mL] | MIC (E. coli 25922) [µg/mL] | MIC (E. coli LZ3111) [µg/mL] | MIC (E. coli ELZ4000) [µg/mL] | MIC (E. coli ELZ4251) [µg/mL] | MIC [3] [µg/mL] | MIC [4] [µg/mL] | MIC (A. baumannii MXX2240) [µg/mL] | MIC (K. pneumoniae MXX1232) [µg/mL] | MIC [5] [µg/mL] | MIC [6] [µg/mL] | MIC [7] [µg/mL] | MIC [8] [µg/mL]
1 | CCc1c(-c2ccc3c(c2)cc(CNCC2CCC2)n3C)[nH]c(=O)c(C(=O)O)c1O.Cl [Cpd 235, 6-(2-((cyclobutylmethylamino)methyl)-1-methyl-1H-indol-5-yl)-5-ethyl-4-hydroxy-2-oxo-1,2-dihydropyridine-3-carboxylic acid hydrochloride] | < 1 | 3.5 to 12.5 | < 1 | 3.5 to 12.5 | 12.5 to 150 | 3.5 to 12.5 | < 1 | 1 to 3.5 | 3.5 to 12.5 | 12.5 to 150 | 12.5 to 150 | < 1 | < 1 | < 1
2 | CCc1c(-c2ccc3c(c2)cc(CN2C[C@H]4CCC[C@@H](N(C)C)[C@H]4C2)n3C)[nH]c(=O)c(C(=O)O)c1O [Cpd 279, 6-(2-(((3aR,4R,7aS)-4-(dimethylamino)-1H-isoindol-2(3H,3aH,4H,5H,6H,7H,7aH)-yl)methyl)-1-methyl-1H-indol-5-yl)-5-ethyl-4-hydroxy-2-oxo-1,2-dihydropyridine-3-carboxylic acid] | < 1 | 3.5 to 12.5 (≈ 7.1 to 25.4 µM) | 1 to 3.5 (≈ 2.03 to 7.1 µM) | 1 to 3.5 (≈ 2.03 to 7.1 µM) | 12.5 to 150 (≈ 25.4 to 304 µM) | 12.5 to 150 (≈ 25.4 to 304 µM) | 1 to 3.5 (≈ 2.03 to 7.1 µM) | 1 to 3.5 (≈ 2.03 to 7.1 µM) | 12.5 to 150 (≈ 25.4 to 304 µM) | 12.5 to 150 (≈ 25.4 to 304 µM) | 12.5 to 150 (≈ 25.4 to 304 µM) | 1 to 3.5 (≈ 2.03 to 7.1 µM) | 1 to 3.5 (≈ 2.03 to 7.1 µM) | < 1
3 | CCc1c(-c2ccc3c(c2)cc(CN2CCN(C)CC2)n3C)[nH]c(=O)c(C(=O)O)c1O [Cpd 169, 5-ethyl-4-hydroxy-6-(1-methyl-2-((4-methylpiperazin-1-yl)methyl)-1H-indol-5-yl)-2-oxo-1,2-dihydropyridine-3-carboxylic acid] | < 1 | 3.5 to 12.5 (≈ 8.24 to 29.4 µM) | 1 to 3.5 (≈ 2.36 to 8.24 µM) | 3.5 to 12.5 (≈ 8.24 to 29.4 µM) | 12.5 to 150 (≈ 29.4 to 353 µM) | 12.5 to 150 (≈ 29.4 to 353 µM) | 1 to 3.5 (≈ 2.36 to 8.24 µM) | 1 to 3.5 (≈ 2.36 to 8.24 µM) | 12.5 to 150 (≈ 29.4 to 353 µM) | 12.5 to 150 (≈ 29.4 to 353 µM) | 12.5 to 150 (≈ 29.4 to 353 µM) | 1 to 3.5 (≈ 2.36 to 8.24 µM) | < 1 | < 1
4 | CCc1c(-c2ccc3c(c2)cc(CNCC2CCCN2CC)n3C)[nH]c(=O)c(C(=O)O)c1O.Cl.Cl (stereo not drawn) [Cpd 230, 5-ethyl-6-(2-(((1-ethylpyrrolidin-2-yl)methylamino)methyl)-1-methyl-1H-indol-5-yl)-4-hydroxy-2-oxo-1,2-dihydropyridine-3-carboxylic acid dihydrochloride] | < 1 | 12.5 to 150 | 3.5 to 12.5 | 3.5 to 12.5 | 12.5 to 150 | 12.5 to 150 | 12.5 to 150 | 1 to 3.5 | 12.5 to 150 | 12.5 to 150 | 12.5 to 150 | 3.5 to 12.5 | 3.5 to 12.5 | 1 to 3.5
5 | CCc1c(-c2ccc3c(c2)cc(CN2CC[C@H](N)C2)n3C)[nH]c(=O)c(C(=O)O)c1O [Cpd 180, (S)-6-(2-((3-aminopyrrolidin-1-yl)methyl)-1-methyl-1H-indol-5-yl)-5-ethyl-4-hydroxy-2-oxo-1,2-dihydropyridine-3-carboxylic acid] | < 1 | 12.5 to 150 (≈ 30.5 to 365 µM) | 1 to 3.5 (≈ 2.44 to 8.53 µM) | 1 to 3.5 (≈ 2.44 to 8.53 µM) | 12.5 to 150 (≈ 30.5 to 365 µM) | 3.5 to 12.5 (≈ 8.53 to 30.5 µM) | 12.5 to 150 (≈ 30.5 to 365 µM) | 3.5 to 12.5 (≈ 8.53 to 30.5 µM) | 12.5 to 150 (≈ 30.5 to 365 µM) | 12.5 to 150 (≈ 30.5 to 365 µM) | 12.5 to 150 (≈ 30.5 to 365 µM) | 1 to 3.5 (≈ 2.44 to 8.53 µM) | 3.5 to 12.5 (≈ 8.53 to 30.5 µM) | 1 to 3.5 (≈ 2.44 to 8.53 µM)
6 | CCc1c(-c2ccc3c(c2)cc(CNCC2CCCN(C)C2)n3C)[nH]c(=O)c(C(=O)O)c1O.Cl.Cl (stereo not drawn) [Cpd 231, 5-ethyl-4-hydroxy-6-(1-methyl-2-(((1-methylpiperidin-3-yl)methylamino)methyl)-1H-indol-5-yl)-2-oxo-1,2-dihydropyridine-3-carboxylic acid dihydrochloride] | < 1 | 12.5 to 150 | 1 to 3.5 | 1 to 3.5 | 12.5 to 150 | 12.5 to 150 | 3.5 to 12.5 | 1 to 3.5 | 12.5 to 150 | 12.5 to 150 | 12.5 to 150 | 1 to 3.5 | 3.5 to 12.5 | 1 to 3.5
